According to ChEMBL document CHEMBL1201862, “PubChem BioAssay data set” (2004):
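Method: 48-hour compound exposure of cells in 96-well plates, five concentrations, linear interpolation of endpoints. Here, GI50 denotes the concentration required for 50% inhibition of growth.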 Active and inactive are the calls of the source. No stated cut-off is given here; in the data, active = GI50 up to about 1.1 µM and inactive = higher.

What was measured:
Test in all cases: inhibition of tumour cell growth, NCI panel, 48 h
A549 = test system: A549
RPMI-8226 = test system: RPMI-8226
OVCAR-3 = test system: OVCAR-3
HCT-116 = test system: HCT-116
U-251 = test system: U-251
SNB-19 = test system: SNB-19
M14 = test system: M14
Malme-3M = test system: Malme-3M
DU-145 = test system: DU-145
HCC 2998 = test system: HCC 2998
TK-10 = test system: TK-10
SR = test system: SR
HT-29 = test system: HT-29
CCRF-CEM = test system: CCRF-CEM
OVCAR-8 = test system: OVCAR-8
OVCAR-5 = test system: OVCAR-5
SK-MEL-2 = test system: SK-MEL-2
SK-OV-3 = test system: SK-OV-3
SK-MEL-5 = test system: SK-MEL-5
NCI-H460 = test system: NCI-H460

Compound	GI50 (A549)	GI50 (RPMI-8226)	GI50 (OVCAR-3)	GI50 (HCT-116)	GI50 (U-251)	GI50 (SNB-19)	GI50 (M14)	GI50 (Malme-3M)	GI50 (DU-145)	GI50 (HCC 2998)	GI50 (TK-10)	GI50 (SR)	GI50 (HT-29)	GI50 (CCRF-CEM)	GI50 (OVCAR-8)	GI50 (OVCAR-5)	GI50 (SK-MEL-2)	GI50 (SK-OV-3)	GI50 (SK-MEL-5)	GI50 (NCI-H460)
CCOc1ccc(/N=C/C=C(\Cl)c2ccc3ccccc3c2)cc1	29.8 µM (inactive)	6.65 µM (inactive)	15.2 µM (inactive)	9.14 µM (inactive)	17.5 µM (inactive)	16.4 µM (inactive)	20.8 µM (inactive)	14.2 µM (inactive)	16.7 µM (inactive)	0.022 µM (active)	17.5 µM (inactive)	2.52 µM (inactive)	11.5 µM (inactive)	3.56 µM (inactive)	16.2 µM (inactive)	17.8 µM (inactive)	19.6 µM (inactive)	19.7 µM (inactive)	16.4 µM (inactive)	20 µM (inactive)
CCN(CC)CCOC(=O)CCN1CC2CCC(CC2)C1	> 100 µM (inactive)	> 100 µM (inactive)	> 100 µM (inactive)	> 100 µM (inactive)	> 100 µM (inactive)	> 100 µM (inactive)	> 100 µM (inactive)	> 100 µM (inactive)	> 100 µM (inactive)	> 100 µM (inactive)	> 100 µM (inactive)	> 100 µM (inactive)	> 100 µM (inactive)	> 100 µM (inactive)	> 100 µM (inactive)	> 100 µM (inactive)	> 100 µM (inactive)	> 100 µM (inactive)	> 100 µM (inactive)	> 100 µM (inactive)
CN1C(=O)C2(Cc3cn(C45CC67SSC(CO)(C(=O)N6C4Nc4ccccc45)N(C)C7=O)c4ccccc34)SSC1(CO)C(=O)N2C (centres undefined)	0.172 µM (active)	0.0139 µM (active)	0.0163 µM (active)	0.0113 µM (active)	0.0369 µM (active)	0.271 µM (active)	< 0.01 µM (active)	< 0.01 µM (active)	0.0261 µM (active)	0.0229 µM (active)	0.0243 µM (active)	< 0.01 µM (active)	< 0.01 µM (active)	1.52 µM (inactive)	0.0206 µM (active)	0.12 µM (active)	0.1 µM (active)	0.262 µM (active)	0.1 µM (active)	0.218 µM (active)
Cn1c2ccc3cc2c(=S)c2cc(ccc21)OCCOCCOCCOCCOCCO3	> 10 µM (inactive)	> 10 µM (inactive)	> 10 µM (inactive)	> 10 µM (inactive)	> 10 µM (inactive)	> 10 µM (inactive)	> 10 µM (inactive)	> 10 µM (inactive)	> 10 µM (inactive)	> 10 µM (inactive)	> 10 µM (inactive)	> 10 µM (inactive)	> 10 µM (inactive)	> 10 µM (inactive)	> 10 µM (inactive)	> 10 µM (inactive)	> 10 µM (inactive)	> 10 µM (inactive)	> 10 µM (inactive)	> 10 µM (inactive)
Nc1ccc2c(SCc3ccc([N+](=O)[O-])cc3)c3ccccc3nc2c1	21.6 µM (inactive)	2.7 µM (inactive)	15.8 µM (inactive)	7.53 µM (inactive)	18.2 µM (inactive)	21.9 µM (inactive)	11.4 µM (inactive)	13.5 µM (inactive)	13.4 µM (inactive)	21.5 µM (inactive)	11.9 µM (inactive)	1.42 µM (inactive)	17.5 µM (inactive)	1.35 µM (inactive)	13.2 µM (inactive)	18.3 µM (inactive)	16.4 µM (inactive)	20.5 µM (inactive)	15.2 µM (inactive)	21.7 µM (inactive)
CC1=C(C#N)C2C(=C(N)Oc3ccccc32)C(N)=N1 (centres undefined)	38.3 µM (inactive)	24 µM (inactive)	44.8 µM (inactive)	24.4 µM (inactive)	34 µM (inactive)	21.8 µM (inactive)	20.7 µM (inactive)	16 µM (inactive)	21.1 µM (inactive)	29.4 µM (inactive)	21.1 µM (inactive)	40.8 µM (inactive)	27.2 µM (inactive)	30.1 µM (inactive)	25.1 µM (inactive)	24.8 µM (inactive)	20.1 µM (inactive)	8.38 µM (inactive)	23.7 µM (inactive)	–
CCOC(=O)/C=C/[C@H](O[Si](c1ccccc1)(c1ccccc1)c1ccccc1)C(C)(C)C	23.3 µM (inactive)	3.44 µM (inactive)	> 31.6 µM (inactive)	22.5 µM (inactive)	> 31.6 µM (inactive)	> 31.6 µM (inactive)	73.8 µM (inactive)	> 31.6 µM (inactive)	> 31.6 µM (inactive)	5.92 µM (inactive)	> 31.6 µM (inactive)	> 10 µM (inactive)	7.03 µM (inactive)	15.8 µM (inactive)	> 31.6 µM (inactive)	> 10 µM (inactive)	> 31.6 µM (inactive)	> 31.6 µM (inactive)	10.2 µM (inactive)	> 10 µM (inactive)
CCc1ccc(/C=C/C(=O)C2CN(CC)CCC2(O)/C=C/c2ccc(CC)cc2)cc1 (centres undefined)	7.08 µM (inactive)	1.36 µM (inactive)	1.71 µM (inactive)	1.79 µM (inactive)	1.66 µM (inactive)	7.62 µM (inactive)	2.61 µM (inactive)	7.31 µM (inactive)	9.55 µM (inactive)	2.22 µM (inactive)	2.34 µM (inactive)	1.71 µM (inactive)	1.83 µM (inactive)	1.87 µM (inactive)	3.3 µM (inactive)	3.16 µM (inactive)	7.18 µM (inactive)	12.3 µM (inactive)	4.36 µM (inactive)	2.22 µM (inactive)
CCCCNc1nc(SC)nc2[nH]cnc12	> 100 µM (inactive)	> 100 µM (inactive)	> 100 µM (inactive)	> 100 µM (inactive)	> 100 µM (inactive)	> 74 µM (inactive)	> 100 µM (inactive)	> 100 µM (inactive)	> 100 µM (inactive)	> 100 µM (inactive)	> 100 µM (inactive)	> 100 µM (inactive)	> 100 µM (inactive)	> 100 µM (inactive)	> 64.4 µM (inactive)	> 100 µM (inactive)	> 100 µM (inactive)	5.82 µM (inactive)	> 100 µM (inactive)	> 100 µM (inactive)
Oc1cc(-c2ccc(F)cc2)nc2ncc(Cl)cc12	35.5 µM (inactive)	19 µM (inactive)	20.6 µM (inactive)	9.51 µM (inactive)	21.7 µM (inactive)	38 µM (inactive)	26.9 µM (inactive)	15.7 µM (inactive)	21.4 µM (inactive)	58.6 µM (inactive)	> 83.4 µM (inactive)	3.09 µM (inactive)	26.5 µM (inactive)	18.7 µM (inactive)	38.5 µM (inactive)	55.3 µM (inactive)	26.2 µM (inactive)	45.5 µM (inactive)	6.93 µM (inactive)	15.4 µM (inactive)
O=C(O)c1cc(/N=N/c2ccc([As](=O)(O)O)cc2)ccc1O	> 100 µM (inactive)	> 100 µM (inactive)	> 100 µM (inactive)	> 100 µM (inactive)	> 100 µM (inactive)	> 100 µM (inactive)	> 100 µM (inactive)	> 100 µM (inactive)	> 100 µM (inactive)	> 100 µM (inactive)	> 100 µM (inactive)	> 100 µM (inactive)	> 100 µM (inactive)	> 100 µM (inactive)	> 100 µM (inactive)	> 100 µM (inactive)	> 100 µM (inactive)	> 100 µM (inactive)	> 100 µM (inactive)	> 100 µM (inactive)
CCOC(=O)C(Cc1ccc(N(CCCl)CCCl)cc1)NC(=O)CCCN1C(=O)CN=C(c2ccccc2)c2cc(Cl)ccc21 (centres undefined)	39.1 µM (inactive)	3.48 µM (inactive)	2.22 µM (inactive)	21 µM (inactive)	27.3 µM (inactive)	> 100 µM (inactive)	7 µM (inactive)	2.35 µM (inactive)	14.9 µM (inactive)	12.4 µM (inactive)	> 66.5 µM (inactive)	2.31 µM (inactive)	15.3 µM (inactive)	2.61 µM (inactive)	18.7 µM (inactive)	> 100 µM (inactive)	14.7 µM (inactive)	> 76.2 µM (inactive)	12.4 µM (inactive)	5.35 µM (inactive)
O=C(O)COc1ccc(C(=O)/C(SS/C(C(=O)c2ccc(OCC(=O)O)c(Cl)c2Cl)=C2\C=C(c3ccc(F)cc3)SS2)=C2/C=C(c3ccc(F)cc3)SS2)c(Cl)c1Cl	40.4 µM (inactive)	10.1 µM (inactive)	9.46 µM (inactive)	9.29 µM (inactive)	5.75 µM (inactive)	15 µM (inactive)	23.6 µM (inactive)	40.8 µM (inactive)	26.6 µM (inactive)	25.6 µM (inactive)	37.8 µM (inactive)	3.76 µM (inactive)	26.9 µM (inactive)	4.95 µM (inactive)	14 µM (inactive)	32.8 µM (inactive)	15.6 µM (inactive)	41.7 µM (inactive)	17.5 µM (inactive)	21.7 µM (inactive)
N#Cc1cccc(N2C(=O)C3C4C=CC(C3C2=O)C2C(=O)N(c3cccc(C#N)c3)C(=O)C42)c1 (centres undefined)	51.2 µM (inactive)	> 56.2 µM (inactive)	> 77.3 µM (inactive)	21 µM (inactive)	10.1 µM (inactive)	31.2 µM (inactive)	59 µM (inactive)	53.6 µM (inactive)	> 100 µM (inactive)	> 56.2 µM (inactive)	26.5 µM (inactive)	37.6 µM (inactive)	> 63.1 µM (inactive)	44.8 µM (inactive)	37.8 µM (inactive)	> 63.1 µM (inactive)	22.8 µM (inactive)	17.1 µM (inactive)	> 63.1 µM (inactive)	> 63.1 µM (inactive)
